Values after ≈ are worked out from the molar mass of the structure shown.
Columns and labels:
Streptococcus pneumoniae = experiment: Bacterial susceptibility testing in liquid media (Minimum Inhibitory Concentration); type: cell-based; details: against Streptococcus pneumoniae, 37 degrees C., 24 hrs, lowest concentration able to reduce growth by 80% or more
Experimental: Compounds were tested for antimicrobial activity by susceptibility testing in liquid media. Compounds were dissolved in dimethylsulfoxide and tested in 10 doubling dilutions in the susceptibility assays. The organisms used in the assay were grown overnight on suitable agar media and then suspended in a liquid medium appropriate for the growth of the organism. The suspension was a 0.5 McFarland and a further 1 in 10 dilution was made into the same liquid medium to prepare the final organism suspension in 100 μL. Plates were incubated under appropriate conditions at 37 degrees C. for 24 hrs prior to reading. The Minimum Inhibitory Concentration was determined as the lowest drug concentration able to reduce growth by 80% or more.

MIC (Streptococcus pneumoniae)	melting point	Compound
2 µg/mL (≈ 5.07 µM)		Cc1[nH]c(C(=O)NC2CCN(c3nc(C#N)cs3)CC2)cc1Br [Example 130, 4-Bromo-N-[1-(4-cyano-1,3-thiazol-2-yl)piperidin-4-yl]-5-methyl-1H-pyrrole-2-carboxamide]
	254 to 256 °C	Cc1[nH]c(C(=O)NC2CCN(c3cc(C(=O)O)nc4ccccc34)CC2)c(Cl)c1Cl [Example 225, 4-(4-{[(3,4-Dichloro-5-methyl-1H-pyrrol-2-yl)carbonyl]amino}piperidin-1-yl)quinoline-2-carboxylic acid]
	232 to 234 °C	Cc1[nH]c(C(=O)NC2CCN(c3cc(C(=O)O)on3)CC2)c(Cl)c1Cl [Example 226, 3-(4-{[(3,4-Dichloro-5-methyl-1H-pyrrol-2-yl)carbonyl]amino}piperidin-1-yl)isoxazole-5-carboxylic acid]

From patent US7709503B2, “Pyrrol derivatives with antibacterial activity” (AstraZeneca AB, priority 2003, dated 2010)
